Test system: B16-OVA melanoma
Experiment: B16-OVA melanoma syngeneic mouse tumour model
Type: in vivo
Protocol: (a) Experimental design. Wildtype BMDMs were stimulated with IL-4/IL-13 with or without MAOI treatment. MAOIs (monoamine oxidase inhibitors) studied were phenelzine (Phe: 20 μM), clorgyline (Clo: 20 μM), moclobemide (Moc: 200 μM), and pirlindole (Pir: 20 μM). NT, no MAOI treatment. (b) FACS analyses of ROS levels in BMDMs. (c) FACS analyses of CD206 expression on BMDMs. (d,e) QPCR analyses of Chi313 (d) and Arg1 (e) mRNA expression in BMDMs. f-j, Studying the TAM-related cancer immunotherapy potential of MAOI treatment in a B16-OVA melanoma syngeneic mouse tumour model (n=7-8). (f) Experimental design. B6 wildtype mice were treated with clodronate liposomes (Clod) to serve as TAM-depleted experimental mice, or treated with vehicle liposomes (Veh) to serve as TAM-intact control mice. Phe, phenelzine treatment: NT, no phenelzine treatment. (g) Tumour growth. (h) Tumour volume at day 18. (i) FACS analyses of CD206 expression on TAMs of TAM-intact experimental mice. (j) FACS analyses of intracellular Granzyme B production in tumour-infiltrating CD8^+ T cells of all experimental mice. k-o, Studying the cancer therapy potential of MAOI treatment in combination with anti-PD-1 treatment in the B16-OVA melanoma and MC38 colon cancer syngeneic mouse tumour models (n=5). (k) Experimental design. Tumour-bearing mice were treated with anti-PD-1 antibody (aPD-1) or isotype control (Iso), together with or without phenelzine (Phe) treatment. NT, no Phe treatment. (l) B16-OVA tumour growth. (m) B16-OVA tumour volume at day 18. (n) MC38 tumour growth. (o) MC38 tumour volume at day 27. Representative of 3 experiments. All data are presented as the mean±SEM. ns, not significant, *P<0.05, **P<0.01, and ***P<0.001, by I-way ANOVA (b-e, h, j, m, o) or by Student's t test (i).
Tumour-bearing mice treated with vehicle liposomes (Veh) were included as a control. The experimental design is shown in main FIG. 5F. FACS quantifications of TAMs (gated as CD45.2^+CD11b^+Ly6G^−Ly6C^−/lowF4/80^+ cells of total TIIs) are presented (n=7-8). b-f, Studying B16-OVA and MC38 tumour growth in B6 wildtype mice with or without phenelzine treatment (Phe or NT). (b) Experimental design. (c) B16-OVA tumour growth (n=10). (d) B16-OVA tumour volume at day 18. (e) MC38 tumour growth (n=6). (f) MC38 tumour volume at day 27. g-k, Studying B16-OVA and MC38 tumour growth in NSG mice with or without phenelzine treatment (Phe or NT: n=5). (g) Experimental design. (h) B16-OVA tumour growth. (i) B16-OVA tumour volume at day 18. (j) MC38 tumour growth. (k) MC38 tumour volume at day 21. Representative of 2 (a-f) and 4 (g-k) experiments.
B16-OVA melanoma cells (1×10^6 per animal) or MC38 colon cancer cells (5×10^5 per animal) were subcutaneously (s.c.) injected into experimental mice to form solid tumours. In some experiments, mice received intraperitoneal (i.p.) injection of phenelzine (30 mg/kg/day) to block MAO-A activity. In some experiments, mice received i.p. injection of clodronate liposomes (200 μl/animal, twice per week) to deplete TAMs: mice received i.p. injection of vehicle liposomes ([…], twice per week) were included as controls. In some experiments, mice received i.p. injection of anti-mouse PD-1 antibodies (300 μg/animal, twice per week) to block PD-1: mice received i.p. injection of isotype antibodies were included as controls. During an experiment, tumour growth was monitored twice per week by measuring tumour size using a Fisherbrand™ Traceable™ digital caliper (Thermo Fisher Scientific): tumour volumes were calculated by formula 1/2×L×W^2.

## NNCCc1ccccc1 [phenelzine]
B6 wildtype mice, phenelzine vs no treatment (FIG. 11b-d)
  progression of pre-established B16-OVA solid tumours: effectively suppressed
NSG mice, phenelzine vs no treatment
  growth of B16-OVA tumours in immunodeficient NSG mice: did not suppress
TAMs from phenelzine-treated TAM-intact B16-OVA tumour-bearing mice
  CD206 expression on TAMs (FACS): decreased expression
Combination study with anti-PD-1 antibody or isotype control (FIG. 5k-m), level comparable to anti-PD-1 alone
  progression of pre-established B16-OVA solid tumours: significantly suppressed
phenelzine-treated B16-OVA tumour-bearing mice
  Granzyme B production in tumour-infiltrating CD8+ T cells (FACS): increased production
Tumour prevention model, B6 wildtype mice, TAM-intact, phenelzine 30 mg/kg/day i.p.
  B16-OVA tumour growth: effectively suppressed
Tumour prevention model, B6 wildtype mice, TAMs depleted with clodronate liposomes, phenelzine vs no phenelzine
  B16-OVA tumour growth in TAM-depleted mice: No tumour growth difference

From patent US20230391871A1, “MONOAMINE OXIDASE BLOCKADE THERAPY FOR TREATING CANCER THROUGH REGULATING TUMOR ASSOCIATED MACROPHAGES (TAMS)” (THE REGENTS OF THE UNIVERSITY OF CALIFORNIA, priority 2020, published 2023)
